Measured values as given in patent US20080021004A1, “Sapogenin derivatives and their use in the treatment of cognitive dysfunction” (PHYTOPHARM PLC, priority 1999, published 2008).

System: m2 receptors on CHO cells
Assay: Expression of m2 receptors on transfected CHO cells (tritiated QNB binding)
Assay type: cell-based, human
Conditions: DMSO control
Text: Sapogenin derivatives of the present invention have also been tested for activity in a number of in-vitro assays. The assays/experiments that were considered of key importance in determining possible activity in the elevation of membrane bound receptor numbers were as follows: • Chinese hamster ovary (CHO) cells transfected with the DNA fragment coding for a muscarinic receptor. The cell line used for the majority of the experiments was a cell line expressing the m2 receptor.
The effects of various compounds on the expression of m2 receptors on CHO cells transfected with DNA for the m2 receptor were investigated. Receptor numbers were assayed using tritiated QNB binding and subtracting non-specific binding. Compounds were dissolved in DMSO and DMSO was used as a control. Compounds were tested at a range of final concentrations. Compounds were also tested in the presence and absence of tamoxifen to try to distinguish an oestrogen receptor mediated mechanism.
Compounds are active when the effect on receptor expression given as a percentage increase compared to control is more than 15%.

| Structure (SMILES) | Activity (effect on expression of m2 receptors, percentage increase compared to control) (molar concentration 10^−5) | Activity (effect on expression of m2 receptors, percentage increase compared to control) (molar concentration 10^−6) |
| --- | --- | --- |
| CC1CCC2(OC1)OC1CC3C4CC[C@@H]5CC(O)CC[C@]5(C)C4C(=O)C[C@]3(C)C1C2C (stereo partly shown) | Not Active | – |
| CC1CCC2(OC1)OC1CC3C4CC[C@H]5CC(O)CC[C@]5(C)C4CC[C@]3(C)C1C2C (stereo partly shown) | Not Active Not Active | Not Active Not Active |
| CC1CCC2(OC1)OC1CC3C4CC=C5CC(O)CC[C@]5(C)C4CC[C@]3(C)C1C2C (stereo partly shown) | Not Active Not Active | Not Active Not Active |
| CC1CCC2(OC1)OC1CC3C4CC=C5CC(O)C[C@@H](O)[C@]5(C)C4CC[C@]3(C)C1C2C (stereo partly shown) | Not Active Not Active | Not Active Not Active |
| CC1CCC2(OC1)OC1CC3C4CC[C@@H]5CC(O)[C@H](O)C[C@]5(C)C4CC[C@]3(C)C1C2C (stereo partly shown) | Not Active | – |
| CC1C(=O)OC2CC3C4CC[C@H]5CC(O)CC[C@]5(C)C4CC[C@]3(C)C21 (stereo partly shown) | Not Active | – |
| CC(CO)CCCC(C)C1C(O)CC2C3CC[C@H]4CC(O)CC[C@]4(C)C3CC[C@@]21C (stereo partly shown) | Active | – |
